The record followed here is patent US11649229B2, “Amide compounds for treatment of immune and inflammatory disorders” (Achillion Pharmaceuticals, Inc., priority 2015, dated 2023).

In the test the target is Human Factor D (Homo sapiens (Human), UniProt P00746). The experiment in a line: Human Factor D assay. Particulars: Human Factor D 80 nM, substrate Z-L-Lys-SBzl, assay of Example 12. It is filed as biochemical. As for the experimental part:
Human Factor D (purified from human serum, Complement Technology, Inc.) at 80 nM final concentration is incubated with test compound at various concentrations for 5 minutes at room temperature in 50 mM Tris, 1M NaCl, pH 7.5. A synthetic substrate Z-L-Lys-SBzl and DTNB (Ellman's reagent) are added to final concentrations of 100 μM each. Absorbance at 405 nm (A405) is recorded at 30 second intervals for 30 minutes using a microplate spectrophotometer. IC50 values are calculated by nonlinear regression of complement Factor D reaction rates as a function of test compound concentration.
The assay of Example 12 was used to determine the IC50's of the compounds. Other standard Factor D inhibition assays are also available.

Usually pIC50 stands for the IC50 on a negative log10 scale, so that one unit is a factor of ten.

SMILES strings stand for the structures. pIC50: −log10 of the molar value.

Chain of Human Factor D (P00746 26-253): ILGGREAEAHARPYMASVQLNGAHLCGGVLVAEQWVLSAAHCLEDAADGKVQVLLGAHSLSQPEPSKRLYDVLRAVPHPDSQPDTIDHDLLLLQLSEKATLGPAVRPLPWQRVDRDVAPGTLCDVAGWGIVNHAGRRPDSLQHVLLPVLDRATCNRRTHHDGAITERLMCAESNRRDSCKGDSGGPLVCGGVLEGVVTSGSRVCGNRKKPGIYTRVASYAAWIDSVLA

Compound `Cc1cccc(NC(=O)[C@@H]2CCC(F)CCN2C(=O)Cn2cc(C(N)=O)c3cc(C(=O)NS(=O)(=O)C4CC4)ccc32)n1` (stereo partly drawn) [compound 8, N5-(cyclopropylsulfonyl)-1-(2-((2S)-5-fluoro-2-((6-methylpyridin-2-yl)carbamoyl)azepan-1-yl)-2-oxoethyl)-1H-indole-3,5-dicarboxamide] gave a pIC50 below 5.00.
